What all share (type): cell-based, chick
Experiment [1] concerns the target T1, α7 AChR M^40C mutant (C^115A/L^247T background) (Gallus gallus, UniProt P22770, C138A/L270T/M63C).
T1 construct: expressed in transfected cells; host or cells: Xenopus laevis oocytes injected with cRNA
Conditions: fraction of maximal ACh-evoked current evoked by 10 mM Ba^2+ in the absence of ACh. The text has this:
A cDNA clone of the chick α7 receptor containing two mutations (C^115A, L^247T) was used as the parental phenotype for mutations described in this study. We mutated the lone unpaired cysteine in the extracellular domain (C^115) to alanine to allow for a more straightforward interpretation of thiol modification experiments. […] We included the mutation of leucine 247 in the M2 transmembrane domain (L^247T; L9'T) because of its large current amplitudes and non-desensitizing kinetics compared to wild-type α7 receptors. […] All mutations were introduced by site-directed mutagenesis using the QuikChange method (Agilent Technologies, La Jolla, CA) as described previously, and were confirmed by DNA sequencing. […]
Oocytes were superfused in normal extracellular solution containing a reduced Ca^2+ concentration (ESLC; 96 mM NaCl, 2 mM KCl, 1 mM MgCl2, 0.1 mM CaCl2, and 10 mM HEPES, pH 7.5). […] Currents were recorded at a constant holding potential of -60 mV. […]
MTSEA was prepared daily in distilled water and stored on ice. […] Kinetic data were analyzed as described previously; rate data were fit to a single exponential to extract a pseudo-first order rate constant; this was divided by the MTSEA concentration used to determine the second order rate constant for thiol modification.

Experiment [2] has as its target α7 AChR E^172C mutant (C^115A/L^247T background) (Gallus gallus, UniProt P22770, C138A/E195C/L270T). As to the kind of experiment: ACh dose-response, two-electrode voltage clamp in Xenopus oocytes. An excerpt: (§1) A cDNA clone of the chick α7 receptor containing two mutations (C^115A, L^247T) was used as the parental phenotype for mutations described in this study. We mutated the lone unpaired cysteine in the extracellular domain (C^115) to alanine to allow for a more straightforward interpretation of thiol modification experiments. […] We included the mutation of leucine 247 in the M2 transmembrane domain (L^247T; L9'T) because of its large current amplitudes and non-desensitizing kinetics compared to wild-type α7 receptors. […] All mutations were introduced by site-directed mutagenesis using the QuikChange method (Agilent Technologies, La Jolla, CA) as described previously, and were confirmed by DNA sequencing.
(§2) cRNA was prepared using the T7 RNA polymerase and mMessage mMachine kit as described by the manufacturer (Applied Biosystems, Austin, TX). Oocytes were surgically removed and prepared from female Xenopus laevis in accordance with UNC Institutional Animal Care and Use Committee guidelines. Oocytes were injected with 20 ng of cRNA and incubated at 18°C in ND96 (96 mM NaCl, 2 mM KCl, 1 mM MgCl2, 1.8 mM CaCl2, 5 mM Na pyruvate, 50 μg/ml gentamicin, 5 mM HEPES, pH 7.5) for 2–5 days before use. For some mutants we co-injected cRNA encoding the human RIC-3 [38], a protein shown to enhance expression of α7 AChRs in both mammalian cells and oocytes.
(§3) Oocytes were superfused in normal extracellular solution containing a reduced Ca^2+ concentration (ESLC; 96 mM NaCl, 2 mM KCl, 1 mM MgCl2, 0.1 mM CaCl2, and 10 mM HEPES, pH 7.5). […] Two-electrode voltage clamp was performed with a GeneClamp 500B controlled by pCLAMP8 software (Molecular Devices, Sunnyvale, CA). Electrodes were filled with 3 M KCl contacting Ag-AgCl wires and had resistances of 0.5 to 2.0 MΩ. Currents were recorded at a constant holding potential of -60 mV. Currents were low pass filtered at 50 Hz and sampled at 100 Hz. Agonist dose-response curves were obtained as described previously, and data were fit to the Hill equation using Origin software (Microcal Software, Northampton, MA).
(§4) MTSEA was prepared daily in distilled water and stored on ice. Stock solution was diluted to the appropriate working concentration in ESLC immediately before each application. […] To measure the effect of Ba^2+ on modification rates we pre-applied 10 mM Ba^2+ for 30 seconds prior to co-application of 10 mM Ba^2+ plus MTSEA. […] Kinetic data were analyzed as described previously; rate data were fit to a single exponential to extract a pseudo-first order rate constant; this was divided by the MTSEA concentration used to determine the second order rate constant for thiol modification.
For orientation: Two-electrode voltage clamp holds a large cell at a set potential and records current.

Experiment [3] addresses α7 AChR M^40C/E^172Q mutant (C^115A/L^247T background) (Gallus gallus, UniProt P22770, C138A/E195Q/L270T/M63C). The experiment is described as above.
From the text: as §1, §2, §3, §4

The target of experiment [4] is α7 C^115A/L^247T receptor (Gallus gallus, UniProt P22770, C138A/L270T). Described as above.
From the text: as §1, §2, §3, §4

In experiment [5] the target is α7 AChR N^170C mutant (C^115A/L^247T background) (Gallus gallus, UniProt P22770, C138A/L270T/N193C). The description is as above. The note with it: co-expression with human RIC-3, fraction of maximal ACh-evoked current evoked by 10 mM Ba^2+ in the absence of ACh.
From the text: as §1, §2, §3, §4

The target in experiment [6] is α7 AChR M^37C mutant (C^115A/L^247T background) (Gallus gallus, UniProt P22770, C138A/L270T/M60C). The experiment is described as above. The note with it: fraction of maximal ACh-evoked current evoked by 10 mM Ba^2+ in the absence of ACh.
From the text: as §1, §2, §3, §4

The target in experiment [7] is α7 AChR E^44C mutant (C^115A/L^247T background) (Gallus gallus, UniProt P22770, C138A/E67C/L270T). The description is as above.
From the text: as §1, §2, §3, §4

In experiment [8] the target is α7 AChR N^52C mutant (C^115A/L^247T background) (Gallus gallus, UniProt P22770, C138A/L270T/N75C). The experiment is described as above.
From the text: as §1, §2, §3, §4

Where [9] appears, read: co-expression with human RIC-3, fraction of maximal ACh-evoked current evoked by 10 mM Ba^2+ in the absence of ACh.
Setting [10] is: fraction of maximal ACh-evoked current evoked by 10 mM Ba^2+ in the absence of ACh.

Entries after “also recorded” stand apart in the source; their conditions may differ.

Regarding `[Ba+2].[Cl-].[Cl-]` [Ba^2+, BaCl2], the “Ba^2+ efficacy” value is recorded as 0.1 in experiment [1]; 0.02 in experiment [2] (setting [9]); 0.02 in experiment [3] (setting [9]); 0.1 in experiment [4] (setting [10]); 0.03 in experiment [5]; 0.2 in experiment [6]. The entries for the “Ba^2+ efficacy” value in experiment [7] (setting [10]) and in experiment [8] (setting [10]) were 0.01 and 0.6, respectively. Also, the “positive allosteric modulation of ACh currents by Ba^2+” value is “no positive allosteric modulation” in experiment [2] (10 mM Ba^2+), “not positively modulated” in experiment [3] (10 mM Ba^2+) and “eliminated; also recorded: no positive allosteric modulation” in experiment [7] (10 mM Ba^2+). Moreover, the “decrease in ACh EC50 (leftward shift in the dose-response curve) caused by Ba^2+” value in experiment [4] (10 mM Ba^2+) was ~ 10 fold. The “agonism by Ba^2+ in the absence of ACh” value in experiment [8] (10 mM Ba^2+) was “high partial agonism”.

Source of the values: publication PMC2632993, “Conformational changes in α7 acetylcholine receptors underlying allosteric modulation by divalent cations” (BMC Pharmacology, 2009).
